The assay has as its target T1, glutathione S-transferase (GST)-linked full-length human Syk protein (Homo sapiens, UniProt P43405).
T1 construct: glutathione S-transferase (GST)-linked full-length human Syk protein; purchased Carna Biosciences; host or cells: Baculovirus expression system
The experiment in a line: Syk enzyme assay. Type of assay: biochemical. The settings on record: 0.83 nM Syk, time-resolved fluorescence; read-out: IC50 of Syk-inhibitory activity. The gist of the method:
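Phosphotyrosine on a biotin-peptide substrate (0.5 μM) was read by time-resolved fluorescence at 615 and 665 nm with Eu-anti-pTyr antibody and APC-streptavidin after 1 h EDTA stop.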
The IC50 is the point on the concentration scale where inhibition reaches its midpoint. As for `CCn1ncc2c(Nc3nc(N[C@H](c4ccc(F)c(F)c4)[C@H](C)N)c(F)cc3C(N)=O)cccc21` [Example 2-555, 6-(((1R,2S)-2-amino-1-(3,4-difluorophenyl)propyl)amino)-2-((1-ethyl-1H-indazol-4-yl)amino)-5-fluoronicotinamide], the half-maximal inhibitory concentration (IC50) was less than 10 nM.

In the case of `CC[C@@H](Nc1nc(Nc2cncc3c2cnn3CC(F)F)c(C(N)=O)cc1F)[C@H](C)N` [Example 2-396, 6-(((2S,3R)-2-aminopentan-3-yl)amino)-2-((1-(2,2-difluoroethyl)-1H-pyrazolo[3,4-c]pyridin-4-yl)amino)-5-fluoronicotinamide], the IC50 was less than 10 nM.

For the compound `CC[C@@H](Nc1nc(Nc2cnc(OC)c(-n3ccnn3)c2)c(C(N)=O)cc1F)[C@H](C)N` [Example 2-204, 6-(((2S,3R)-2-aminopentan-3-yl)amino)-5-fluoro-2-((6-methoxy-5-(1H-1,2,3-triazol-1-yl)pyridin-3-yl)amino)nicotinamide], the IC50 fell in the range of 10 to 50 nM.

On to `CCCC[C@@H](Nc1nc(Nc2cnc(N3CCOCC3)c(F)c2)c(C(N)=O)cc1F)[C@H](C)N` [Example 2-262, 6-(((2S,3R)-2-aminoheptan-3-yl)amino)-5-fluoro-2-((5-fluoro-6-morpholinopyridin-3-yl)amino)nicotinamide], for which the IC50 lay within 10 to 50 nM.

`Cc1cnn(-c2cncc(Nc3nc(N[C@H](CC(C)C)[C@H](C)N)c(F)cc3C(N)=O)c2)c1` [Example 2-525, 6-(((2S,3R)-2-amino-5-methylhexan-3-yl)amino)-5-fluoro-2-((5-(4-methyl-1H-pyrazol-1-yl)pyridin-3-yl)amino)nicotinamide]: the IC50 was less than 10 nM.

For the compound `C[C@H](N)[C@H](Nc1nc(Nc2ccc(F)c(F)c2)c(C(N)=O)cc1F)C1CC1` [Example 2-59, 6-(((1R,2S)-2-amino-1-cyclopropylpropyl)amino)-2-((3,4-difluorophenyl)amino)-5-fluoronicotinamide], the IC50 fell in the range of 10 to 50 nM.

For `C[C@H](N)[C@H](Nc1nc(Nc2cc(N3CCOCC3)ncc2F)c(C(N)=O)cc1F)C1CC1` [Example 2-234, 6-(((1R,2S)-2-amino-1-cyclopropylpropyl)amino)-5-fluoro-2-((5-fluoro-2-morpholinopyridin-4-yl)amino)nicotinamide], the IC50 is 50 to 100 nM.

Take `CCn1ncc2cc(Nc3nc(N[C@H](C(C)C)[C@H](C)N)c(F)cc3C(N)=O)ccc21` [Example 2-105, 6-(((2S,3R)-2-amino-4-methylpentan-3-yl)amino)-2-((1-ethyl-1H-indazol-5-yl)amino)-5-fluoronicotinamide]: the IC50 lay within 10 to 50 nM.

Consider `CCC[C@@H](Nc1nc(Nc2ccc3c(c2)c(OC(F)F)nn3CCOC)c(C(N)=O)cc1F)[C@H](C)N` [Example 2-353, 6-(((2S,3R)-2-aminohexan-3-yl)amino)-2-((3-(difluoromethoxy)-1-(2-methoxyethyl)-1H-indazol-5-yl)amino)-5-fluoronicotinamide], for which the IC50 was less than 10 nM.

Regarding `COc1nn(C)c2c(F)cc(Nc3nc(N[C@H](C4CC4)[C@H](C)N)c(F)cc3C(N)=O)cc12` [Example 2-154, 6-(((1R,2S)-2-amino-1-cyclopropylpropyl)amino)-5-fluoro-2-((7-fluoro-3-methoxy-1-methyl-1H-indazol-5-yl)amino)nicotinamide], the IC50 was less than 10 nM.

As for `CC(C)C[C@H](CN)Nc1nc(Nc2ccc3c(c2)c(OC(F)F)nn3C)c(C(N)=O)cc1F` [Example 2-541, (R)-6-((1-amino-4-methylpentan-2-yl)amino)-2-((3-(difluoromethoxy)-1-methyl-1H-indazol-5-yl)amino)-5-fluoronicotinamide], the IC50 is less than 10 nM.

For `CCn1ncc2c(Nc3nc(N[C@H](C(C)C)[C@H](C)N)c(F)cc3C(N)=O)cccc21` [Example 2-97, 6-(((2S,3R)-2-amino-4-methylpentan-3-yl)amino)-2-((1-ethyl-1H-indazol-4-yl)amino)-5-fluoronicotinamide], the IC50 lay in the range of 50 to 100 nM.

As to `CCC[C@@H](Nc1nc(Nc2cnc(OC)c(F)c2)c(C(N)=O)cc1F)[C@H](C)N` [Example 2-65, 6-(((2S,3R)-2-aminohexan-3-yl)amino)-5-fluoro-2-((5-fluoro-6-methoxypyridin-3-yl)amino)nicotinamide], the IC50 lay within 10 to 50 nM.

In the case of `COCCn1nc(N(C)C)c2cc(Nc3nc(N[C@@H]4CCOC[C@@H]4N)c(F)cc3C(N)=O)ccc21` [Example 2-501, 6-(((3R,4R)-3-aminotetrahydro-2H-pyran-4-yl)amino)-2-((3-(dimethylamino)-1-(2-methoxyethyl)-1H-indazol-5-yl)amino)-5-fluoronicotinamide], the IC50 lay in the range of 10 to 50 nM.

As to `CC[C@H](N)[C@@H](C)Nc1nc(Nc2cnc3c(c2)c(OC)nn3C)c(C(N)=O)cc1F` [Example 2-257, 6-(((2R,3S)-3-aminopentan-2-yl)amino)-5-fluoro-2-((3-methoxy-1-methyl-1H-pyrazolo[3,4-b]pyridin-5-yl)amino)nicotinamide], the IC50 fell in the range of 50 to 100 nM.

On to `CCCC[C@@H](Nc1nc(Nc2cc(F)c3c(c2)c(N(C)C)nn3C)c(C(N)=O)cc1F)[C@H](C)N` [Example 2-189, 6-(((2S,3R)-2-aminoheptan-3-yl)amino)-2-((3-(dimethylamino)-7-fluoro-1-methyl-1H-indazol-5-yl)amino)-5-fluoronicotinamide], for which the IC50 is less than 10 nM.

As for `COc1ncc(Nc2nc(N[C@@H]3CCCC[C@@H]3N)c(F)cc2C(N)=O)c2cnn(C)c12` [Example 2-407, 6-(((1R,2S)-2-aminocyclohexyl)amino)-5-fluoro-2-((7-methoxy-1-methyl-1H-pyrazolo[3,4-c]pyridin-4-yl)amino)nicotinamide], the IC50 lay within 10 to 50 nM.

For the compound `COCCOc1ncc(Nc2nc(N[C@H](CC(C)C)[C@H](C)N)c(F)cc2C(N)=O)cc1F` [Example 2-119, 6-(((2S,3R)-2-amino-5-methylhexan-3-yl)amino)-5-fluoro-2-((5-fluoro-6-(2-methoxyethoxy)pyridin-3-yl)amino)nicotinamide], the IC50 lay in the range of 10 to 50 nM.

With `CCOc1ncc(Nc2nc(N[C@H](C3CC3)[C@H](C)N)c(F)cc2C(N)=O)cc1-n1cccn1` [Example 2-164], the IC50 was in the range of 10 to 50 nM.

As to `CC[C@@H](Nc1nc(Nc2ccc3nn(C)c(N(C)C)c3c2)c(C(N)=O)cc1F)[C@H](C)N` [Example 2-16, 6-(((2S,3R)-2-aminopentan-3-yl)amino)-2-((3-(dimethylamino)-2-methyl-2H-indazol-5-yl)amino)-5-fluoronicotinamide], the 50% inhibitory concentration (IC50) was 10 to 50 nM.

As to `CN(C)c1n[nH]c2ccc(Nc3nc(N[C@@H]4CCCC[C@@H]4N)c(F)cc3C(N)=O)cc12` [Example 2-492, 6-(((1R,2S)-2-aminocyclohexyl)amino)-2-((3-(dimethylamino)-1H-indazol-5-yl)amino)-5-fluoronicotinamide], the IC50 is less than 10 nM.

Consider `COCCn1nc(N(C)C)c2cc(Nc3nc(N[C@H](CC(C)C)[C@H](C)N)c(F)cc3C(N)=O)ccc21` [Example 2-505, 6-(((2S,3R)-2-amino-5-methylhexan-3-yl)amino)-2-((3-(dimethylamino)-1-(2-methoxyethyl)-1H-indazol-5-yl)amino)-5-fluoronicotinamide], for which the IC50 was 10 to 50 nM.

Regarding `CC(C)Oc1ccc(Nc2nc(N[C@@H]3CCCC[C@@H]3N)c(F)cc2C(N)=O)cc1` [Example 2-449, 6-(((1R,2S)-2-aminocyclohexyl)amino)-5-fluoro-2-((4-isopropoxyphenyl)amino) nicotinamide], the IC50 was less than 10 nM.

Consider `COc1ncc(Nc2nc(N[C@H](C3CC3)[C@H](C)N)c(F)cc2C(N)=O)cc1F` [Example 2-62, 6-(((1R,2S)-2-amino-1-cyclopropylpropyl)amino)-5-fluoro-2-((5-fluoro-6-methoxypyridin-3-yl)amino)nicotinamide.], for which the IC50 is 10 to 50 nM.

`CC[C@@H](Nc1nc(Nc2cnc(N3CCOCC3)c(F)c2)c(C(N)=O)cc1F)[C@H](C)N` [Example 2-259, 6-(((2S,3R)-2-aminopentan-3-yl)amino)-5-fluoro-2-((5-fluoro-6-morpholinopyridin-3-yl)amino)nicotinamide]: the IC50 was in the range of 50 to 100 nM.

Turning to `CCOc1ncc(Nc2nc(N[C@H](CC)[C@H](C)N)c(F)cc2C(N)=O)cc1-n1cccn1` [Example 2-200, 6-(((2S,3R)-2-aminopentan-3-yl)amino)-2-((6-ethoxy-5-(1H-pyrazol-1-yl)pyridin-3-yl)amino)-5-fluoronicotinamide], the IC50 lay within 10 to 50 nM.

For the compound `COCCn1nc(OC(F)F)c2cc(Nc3nc(N[C@H](CC(C)C)[C@H](C)N)c(F)cc3C(N)=O)ccc21` [Example 2-177, 6-(((2S,3R)-2-amino-5-methylhexan-3-yl)amino)-2-((3-(difluoromethoxy)-1-(2-methoxyethyl)-1H-indazol-5-yl)amino)-5-fluoronicotinamide], the IC50 was less than 10 nM.

Turning to `CC[C@H](N)[C@H](Nc1nc(Nc2cccnc2)c(C(N)=O)cc1F)C1CC1` [Example 2-485, 6-(((1R,2S)-2-amino-1-cyclopropylbutyl)amino)-5-fluoro-2-(pyridin-3-ylamino)nicotinamide], the IC50 is 10 to 50 nM.

Take `CC(C)Oc1cccc(Nc2nc(N[C@@H]3CCCC[C@@H]3N)c(F)cc2C(N)=O)c1` [Example 2-446, 6-(((1R,2S)-2-aminocyclohexyl)amino)-5-fluoro-2-((3-isopropoxyphenyl)amino) nicotinamide]: the IC50 was less than 10 nM.

For the compound `COC[C@@H](Nc1nc(Nc2ccc3c(c2)c(N(C)C)nn3C)c(C(N)=O)cc1F)[C@H](C)N` [Example 2-120, 6-(((2S,3S)-3-amino-1-methoxybutan-2-yl)amino)-2-((3-(dimethylamino)-1-methyl-1H-indazol-5-yl)amino)-5-fluoronicotinamide], the IC50 was less than 10 nM.

`C[C@H](N)[C@H](Nc1nc(Nc2cnc(N3CCOCC3)c(F)c2)c(C(N)=O)cc1F)c1ccccc1F` [Example 2-513, 6-(((1R,2S)-2-amino-1-(2-fluorophenyl)propyl)amino)-5-fluoro-2-((5-fluoro-6-morpholinopyridin-3-yl)amino)nicotinamide]: the IC50 was 10 to 50 nM.

The record behind these values is patent US9051310B2, “Nicotinamide derivative or salt thereof” (FUJIFILM Corporation, priority 2011, dated 2015).
